# Assay results as given in patent publication US7803801B2, “Aminopyridine compounds having Syk inhibitory activity” (Japan Tobacco, Inc., priority 2005, dated 2010).
# Counter-ions that a name gives are not always drawn.
# Target: GST-Syk Full Protein (human) (Homo sapiens, UniProt P43405)
# Test: Syk kinase inhibition test (HTRF method)
# Type: biochemical
# Settings: HTRF, 100 μM ATP, 30 min room temperature, average; read-out: sykHTRF ave IC50
# In short: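 HTRF read-out: after EDTA termination and 1 h with XL665-streptavidin and Eu-anti-phosphotyrosine, the 665/620 nm ratio was measured. The reaction ran 30 min at 20–25 °C with final 6.4 nM human GST-Syk, 250 nM biotinylated peptide, 100 μM ATP, pH 7.0 HEPES buffer, 2% DMSO.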
row,IC50,SMILES
1,< 0.1 µM,"Cc1ccnc(Nc2cccc(-c3cnc(N4CCC(C(C)(C)C(=O)O)CC4)s3)n2)c1 [Compound A-18, 2-methyl-2-(1-{5-[6-(4-methylpyridin-2-ylamino)pyridin-2-yl]thiazol-2-yl}piperidin-4-yl)propionic acid]"
2,> 1 µM,COC(=O)c1ccc(CCc2ncc(-c3cccc(Nc4cc(C)ccn4)n3)s2)cc1 [Compound A-149]
3,> 1 µM,CNC(=O)c1nc([C@H](C)NC(C)=O)sc1-c1cccc(Nc2cc(C)ccn2)n1 [Compound A-118]
4,> 1 µM,Cc1ccnc(Nc2cccc(-c3cnc([C@H](CCC(=O)OCc4ccccc4)NC(=O)OC(C)(C)C)s3)n2)c1 [Compound A-96]

# Same assay, conditions: Tables 1-x, compounds A; read-out: sykHTRF ave IC50
row,SMILES,IC50
1,Cc1ccnc(Nc2cccc(-c3cnc(CN4CCc5c(cccc5C(=O)O)C4)s3)n2)c1 [Compound A-608],0.1 to 1 µM
2,Cc1ccnc(Nc2cccc(-c3cnc(N(CC(N)=O)C4CCCCC4)s3)n2)c1 [Compound A-669],0.1 to 1 µM
3,Cc1ccnc(Nc2cccc(-c3cnc(N(C)c4ccc(/C=C/C(=O)O)cc4)s3)n2)c1 [Compound A-618],0.1 to 1 µM
4,Cc1ccnc(Nc2cccc(-c3cnc([C@@H](N)Cc4ccc(O)cc4)s3)n2)c1 [Compound A-389],0.1 to 1 µM
5,Cc1ccnc(Nc2cccc(-c3cnc(N4CCC(NC(=O)C5CCC(O)CC5)CC4)s3)n2)c1 (centres unmarked) [Compound A-662],0.1 to 1 µM
6,Cc1ccnc(Nc2cccc(-c3cnc(N4CCN(CC(=O)OC(C)(C)C)C(=O)C4)s3)n2)c1 [Compound A-463],0.1 to 1 µM
7,NC(=O)[C@@H]1CCCN1c1ncc(-c2cccc(Nc3ccccn3)n2)s1 [Compound A-690],0.1 to 1 µM
8,Cc1ccnc(Nc2cccc(-c3cnc(CN4CCC[C@H]4C(=O)N(C)C)s3)n2)c1 [Compound A-664],0.1 to 1 µM
9,Cc1ccnc(Nc2cccc(-c3cnc(N(Cc4ccccc4)[C@H]4CC[C@@H](CC(=O)O)CC4)s3)n2)c1 [Compound A-625],0.1 to 1 µM
10,Cc1ccnc(Nc2cccc(-c3cnc(N4C[C@H](O)C[C@H]4C(=O)O)s3)n2)c1 [Compound A-569],0.1 to 1 µM
11,Cc1ccnc(Nc2cccc(-c3cnc(N4CCC[C@H]4C(=O)O)s3)n2)c1 [Compound A-527],0.1 to 1 µM
12,Cc1ccnc(Nc2cccc(-c3cnc(N4CCC(NC(=O)C5CCOCC5)CC4)s3)n2)c1 [Compound A-661],0.1 to 1 µM
13,Cc1ccnc(Nc2cccc(-c3cnc(N(C)C4CCC(C(=O)N[C@H]5CC[C@H](O)CC5)CC4)s3)n2)c1 (some centres unmarked) [Compound A-496],0.1 to 1 µM
14,Cc1cccnc1Nc1cccc(-c2cnc(N3CCC(CC(=O)O)CC3)s2)n1 [Compound A-630],0.1 to 1 µM
15,COC(=O)N(CCCC(=O)O)Cc1ncc(-c2cccc(Nc3cc(C)ccn3)n2)s1 [Compound A-585],0.1 to 1 µM
16,CN(c1ncc(-c2cccc(Nc3ccccn3)n2)s1)C(C)(C)c1ccc(C(=O)O)cc1 [Compound A-691],0.1 to 1 µM

# Second part, the compound after the results:
row,IC50,SMILES
1,0.1 to 1 µM,CNC(=O)CN(C)Cc1ncc(-c2cccc(Nc3cc(C)ccn3)n2)s1 [Compound A-687]
2,< 0.1 µM,"Cc1ccnc(Nc2cccc(-c3cnc(N4CCCc5c(C(=O)O)cccc54)s3)n2)c1 [Compound A-627, 1-{5-[6-(4-methylpyridin-2-ylamino)pyridin-2-yl]thiazol-2-yl}-1,2,3,4-tetrahydroquinoline-5-carboxylic acid]"
3,< 0.1 µM,"Cc1ccnc(Nc2cccc(-c3cnc(CN4CCC(C(N)=O)CC4)s3)n2)c1 [Compound A-685, 1-{5-[6-(4-methylpyridin-2-ylamino)pyridin-2-yl]thiazol-2-ylmethyl}piperidine-4-carboxamide]"
4,< 0.1 µM,"O=C(O)CC1CCN(c2ncc(-c3cccc(Nc4ccc(Cl)cn4)n3)s2)CC1 [Compound A-636, (1-{5-[6-(5-chloropyridin-2-ylamino)pyridin-2-yl]thiazol-2-yl}piperidin-4-yl)acetic acid dihydrochloride]"
5,< 0.1 µM,"Cc1ccnc(Nc2cccc(-c3cnc(N4CCc5cc(CC(=O)O)ccc5C4)s3)n2)c1 [Compound A-641, (2-{5-[6-(4-methylpyridin-2-ylamino)pyridin-2-yl]thiazol-2-yl}-1,2,3,4-tetrahydroisoquinolin-6-yl)acetic acid]"
6,< 0.1 µM,"CC(=O)NCCNC(=O)C1CCC(N(C)c2ncc(-c3cccc(Nc4cc(C)ccn4)n3)s2)CC1 (centres unmarked) [Compound A-494, N-(2-acetylaminoethyl)-4-(N′-methyl-N′-{5-[6-(4-methylpyridin-2-ylamino)pyridin-2-yl]thiazol-2-yl}amino)cyclohexanecarboxamide]"
7,< 0.1 µM,"N#Cc1ccnc(Nc2cccc(-c3cnc(N4CCC(CC(=O)O)CC4)s3)n2)c1 [Compound A-650, (1-{5-[6-(4-cyanopyridin-2-ylamino)pyridin-2-yl]thiazol-2-yl}piperidin-4-yl)acetic acid dihydrochloride]"
8,< 0.1 µM,"Cc1ccnc(Nc2cccc(-c3cnc(N(C)CCCCC(=O)O)s3)n2)c1 [Compound A-632, 5-(N-methyl-N-{5-[6-(4-methylpyridin-2-ylamino)pyridin-2-yl]thiazol-2-yl}amino)pentanoic acid]"
9,< 0.1 µM,"Cc1ccnc(Nc2cccc(-c3cnc(N(CCCCCO)C(C)C)s3)n2)c1 [Compound A-678, 5-(N-isopropyl-N-{5-[6-(4-methylpyridin-2-ylamino)pyridin-2-yl]thiazol-2-yl}amino)pentan-1-ol]"
10,< 0.1 µM,"Cc1ccnc(Nc2cccc(-c3cnc(COCC(=O)O)s3)n2)c1 [Compound A-615, {5-[6-(4-methylpyridin-2-ylamino)pyridin-2-yl]thiazol-2-ylmethoxy}acetic acid hydrochloride]"
11,< 0.1 µM,"Cc1ccnc(Nc2cccc(-c3cnc(N(C)CCCCCC(=O)O)s3)n2)c1 [Compound A-645, 6-(N-methyl-N-{5-[6-(4-methylpyridin-2-ylamino)pyridin-2-yl]thiazol-2-yl}amino)hexanoic acid dihydrochloride]"
12,< 0.1 µM,"CC(C)(C(=O)O)C1CCN(c2ncc(-c3cccc(Nc4cnccn4)n3)s2)CC1 [Compound A-707, 2-methyl-2-(1-{5-[6-(pyrazin-2-ylamino)pyridin-2-yl]thiazol-2-yl}piperidin-4-yl)propionic acid dihydrochloride]"
13,< 0.1 µM,"Cc1ccnc(Nc2cccc(-c3cnc(NCCCCC(=O)O)s3)n2)c1 [Compound A-644, 5-{5-[6-(4-methylpyridin-2-ylamino)pyridin-2-yl]thiazol-2-ylamino}pentanoic acid]"
14,< 0.1 µM,"O=C(O)CC1CCN(c2ncc(-c3cccc(Nc4cc(C(F)(F)F)ccn4)n3)s2)CC1 [Compound A-635, (1-{5-[6-(4-trifluoromethylpyridin-2-ylamino)pyridin-2-yl]thiazol-2-yl}piperidin-4-yl)acetic acid dihydrochloride]"

# Same assay, conditions: Tables 2-x, thiophene compounds B; read-out: sykHTRK ave IC50
row,IC50,SMILES
1,0.1 to 1 µM,Cc1ccnc(Nc2cccc(-c3ccc(CN(C)C(=O)[C@H]4CC[C@H](C(=O)O)CC4)s3)n2)c1 [Compound B-123]
2,0.1 to 1 µM,Cc1ccnc(Nc2cccc(-c3ccc(CN4CCC(C(=O)O)CC4)s3)n2)c1 [Compound B-106]
3,0.1 to 1 µM,Cc1ccnc(Nc2cccc(-c3ccc(C(=O)NC[C@H]4CC[C@H](C(=O)O)CC4)s3)n2)c1 [Compound B-111]
4,< 0.1 µM,"CC(=O)N(Cc1ccc(-c2cccc(Nc3cc(C)ccn3)n2)s1)C[C@H]1CC[C@H](C(=O)O)CC1 [Compound B-120, trans-4-[(N-acetyl-N-{5-[6-(4-methylpyridin-2-ylamino)pyridin-2-yl]thiophen-2-ylmethyl}amino)methyl]cyclohexanecarboxylic acid]"
